US9969767B2, “Oxolupene derivatives” (priority 2014, dated 2018)

These molecules were tested on recombinant NL4-3 virus (Renilla luciferase in nef, Gag P373S) (assay: HIV Cell Culture Assay (luciferase reporter virus in MT-2 cells)). Settings: NL43.
Format: cell-based
Method: MT-2 cells and 293T cells were obtained from the NIH AIDS Research and Reference Reagent Program. MT-2 cells were propagated in RPMI 1640 media supplemented with 10% heat inactivated fetal bovine serum, […]. The 293T cells were propagated in DMEM media supplemented with 10% heat inactivated fetal bovine serum (FBS), 100 units/mL penicillin G and 100 μg/mL streptomycin. The proviral DNA clone of NL4-3 was obtained from the NIH AIDS Research and Reference Reagent Program. A recombinant NL4-3 virus, in which a section of the nef gene from NL4-3 was replaced with the Renilla luciferase gene, was used as a reference virus. In addition, residue Gag P373 was converted to P373S. Briefly, the recombinant virus was prepared by transfection of the altered proviral clone of NL4-3. Transfections were performed in 293T cells using LipofectAMINE PLUS from Invitrogen (Carlsbad, Calif.), according to manufacturer's instruction. The virus was titered in MT-2 cells using luciferase enzyme activity as a marker. Luciferase was quantitated using the Dual Luciferase kit from Promega (Madison, Wis.), with modifications to the manufacturer's protocol. The diluted Passive Lysis solution was pre-mixed with the re-suspended Luciferase Assay Reagent and the re-suspended Stop & Glo Substrate (2:1:1 ratio). Fifty (50) μL of the mixture was added to each aspirated well on assay plates and luciferase activity was measured immediately on a Wallac TriLux (Perkin-Elmer). Antiviral activities of inhibitors toward the recombinant virus were quantified by measuring luciferase activity in cells infected for 4-5 days with NLRluc recombinants in the presence serial dilutions of the inhibitor.

`CC(C)C1=C2[C@H]3CC[C@@H]4[C@@]5(C)CC=C(C6=CCC(C(=O)O)CC6)C(C)(C)[C@@H]5CC[C@@]4(C)[C@]3(C)CC[C@@]2(C(=O)NCCN2CCOCC2)CC1=O` (stereo partly drawn) [Example 1, 4-((3aR,5aR,5bR,7aR,11aS,11bR,13aS)-1-isopropyl-5a,5b,8,8,11a-pentamethyl-3a-((2-morpholinoethyl)carbamoyl)-2-oxo-3,3a,4,5,5a,5b,6,7,7a,8,11,11a,11b,12,13,13a-hexadecahydro-2H-cyclopenta[a]chrysen-9-yl)cyclohex-3-enecarboxylic acid] was tested. Which EC50 did it give?
The EC50 was 0.00193 µM.

For `CC(C)C1=C2[C@H]3CC[C@@H]4[C@@]5(C)CC=C(C6=CCC(C(=O)O)CC6)C(C)(C)[C@@H]5CC[C@@]4(C)[C@]3(C)CC[C@@]2(C(=O)NCCN2CCS(=O)(=O)CC2)CC1=O` (stereo partly drawn) [Example 2, 4-((3aR,5aR,5bR,7aR,11aS,11bR,13aS)-3a((2-(1,1-dioxidothiomorpholino)ethyl)carbamoyl)-1-isopropyl-5a,5b,8,8,11a-pentamethyl-2-oxo-3,3a,4,5,5a,5b,6,7,7a,8,11,11a,11b,12,13,13a-hexadecahydro-2H-cyclopenta[a]chrysen-9-yl)cyclohex-3-enecarboxylic acid], which EC50 is on record?
Its EC50 is < 0.1 µM.

How did the EC50 turn out when `CC(C)C1=C2[C@H]3CC[C@@H]4[C@@]5(C)CC=C(c6ccc(C(=O)O)cc6)C(C)(C)[C@@H]5CC[C@@]4(C)[C@]3(C)CC[C@@]2(C(=O)O)CC1=O` [Example 3, (3aR,5aR,5bR,7aR,11aS,11bR,13aS)-9-(4-carboxyphenyl)-1-isopropyl-5a,5b,8,8,11a-pentamethyl-2-oxo-3,3a,4,5,5a,5b,6,7,7a,8,11,11a,11b,12,13,13a-hexadecahydro-2H-cyclopenta[a]chrysene-3a-carboxylic acid] was run?
Its EC50 is < 0.1 µM.

With `CC(C)C1=C2[C@H]3CC[C@@H]4[C@@]5(C)CC=C(C6=CCC(C(=O)O)CC6)C(C)(C)[C@@H]5CC[C@@]4(C)[C@]3(C)CC[C@@]2(C(=O)O)CC1=O` (stereo partly drawn) [Example 4, (3aR,5aR,5bR,7aR,11aS,11bR,13aS)-9-(4-carboxycyclohex-1-en-1-yl)-1-isopropyl-5a,5b,8,8,11a-pentamethyl-2-oxo-3,3a,4,5,5a,5b,6,7,7a,8,11,11a,11b,12,13,13a-hexadecahydro-2H-cyclopenta[a]chrysene-3a-carboxylic acid] as the molecule, how does the EC50 read?
The EC50 was < 0.1 µM.

`CC(C)C1=C2[C@H]3CC[C@@H]4[C@@]5(C)CC=C(C6=CC[C@](CF)(C(=O)O)CC6)C(C)(C)[C@@H]5CC[C@@]4(C)[C@]3(C)CC[C@@]2(C(=O)O)CC1=O` [Example 5, (3aR,5aR,5bR,7aR,11aS,11bR,13aS)-9-((S)-4-carboxy-4-(fluoromethyl)cyclohex-1-en-1-yl)-1-isopropyl-5a,5b,8,8,11a-pentamethyl-2-oxo-3,3a,4,5,5a,5b,6,7,7a,8,11,11a,11b,12,13,13a-hexadecahydro-2H-cyclopenta[a]chrysene-3a-carboxylic acid] was tested. Which EC50 did it give?
Its EC50 is < 0.1 µM.

With `CC(C)C1=C2[C@H]3CC[C@@H]4[C@@]5(C)CC=C(C6=CCC(C(=O)O)CC6)C(C)(C)[C@@H]5CC[C@@]4(C)[C@]3(C)CC[C@@]2(NCCN2CCS(=O)(=O)CC2)CC1=O` (stereo partly drawn) [Example 6, 4-((3aR,5aR,5bR,7aR,11aS,11bR,13aS)-3a-((2-(1,1-dioxidothiomorpholino)ethyl)amino)-1-isopropyl-5a,5b,8,8,11a-pentamethyl-2-oxo-3,3a,4,5,5a,5b,6,7,7a,8,11,11a,11b,12,13,13a-hexadecahydro-2H-cyclopenta[a]chrysen-9-yl)cyclohex-3-enecarboxylic acid] as the molecule, how does the EC50 read?
The EC50 was < 0.1 µM.

With `CC(C)C1=C2[C@H]3CC[C@@H]4[C@@]5(C)CC=C(C6=CCC(C(=O)O)CC6)C(C)(C)[C@@H]5CC[C@@]4(C)[C@]3(C)CC[C@@]2(N)CC1=O` (stereo partly drawn) [Example 7, 4-((3aR,5aR,5bR,7aR,11aS,11bR,13aS)-3a-amino-1-isopropyl-5a,5b,8,8,11a-pentamethyl-2-oxo-3,3a,4,5,5a,5b,6,7,7a,8,11,11a,11b,12,13,13a-hexadecahydro-2H-cyclopenta[a]chrysen-9-yl)cyclohex-3-enecarboxylic acid] as the molecule, how does the EC50 read?
Its EC50 is 0.000973 µM.

How did the EC50 turn out when `CC(C)C1=C2[C@H]3CC[C@@H]4[C@@]5(C)CC=C(C6=CC[C@](CF)(C(=O)O)CC6)C(C)(C)[C@@H]5CC[C@@]4(C)[C@]3(C)CC[C@@]2(N)CC1=O` [Example 8, (S)-4-((3aR,5aR,5bR,7aR,11aS,11bR,13aS)-3a-amino-1-isopropyl-5a,5b,8,8,11a-pentamethyl-2-oxo-3,3a,4,5,5a,5b,6,7,7a,8,11,11a,11b,12,13,13a-hexadecahydro-2H-cyclopenta[a]chrysen-9-yl)-1-(fluoromethyl)cyclohex-3-enecarboxylic acid] was run?
The EC50 was < 0.1 µM.

How did the EC50 turn out when `CC(C)C1=C2[C@H]3CC[C@@H]4[C@@]5(C)CC=C(C6=CC[C@](CF)(C(=O)O)CC6)C(C)(C)[C@@H]5CC[C@@]4(C)[C@]3(C)CC[C@@]2(NCCN2CCS(=O)(=O)CC2)CC1=O` [Example 9, (S)-4-((3aR,5aR,5bR,7aR,11aS,11bR,13aS)-3a-((2-(1,1-dioxidothiomorpholino)ethyl)amino)-1-isopropyl-5a,5b,8,8,11a-pentamethyl-2-oxo-3,3a,4,5,5a,5b,6,7,7a,8,11,11a,11b,12,13,13a-hexadecahydro-2H-cyclopenta[a]chrysen-9-yl)-1-(fluoromethyl)cyclohex-3-enecarboxylic acid] was run?
Its EC50 is < 0.1 µM.

With `CC(C)C1=C2[C@H]3CC[C@@H]4[C@@]5(C)CC=C(C6=CC[C@](CF)(C(=O)O)CC6)C(C)(C)[C@@H]5CC[C@@]4(C)[C@]3(C)CC[C@@]2(N(CCN2CCS(=O)(=O)CC2)CCN2CCS(=O)(=O)CC2)CC1=O` [Example 10, (S)-4-((3aR,5aR,5bR,7aR,11aS,11bR,13aS)-3a-(bis(2-(1,1-dioxidothiomorpholino)ethyl)amino)-1-isopropyl-5a,5b,8,8,11a-pentamethyl-2-oxo-3,3a,4,5,5a,5b,6,7,7a,8,11,11a,11b,12,13,13a-hexadecahydro-2H-cyclopenta[a]chrysen-9-yl)-1-(fluoromethyl)cyclohex-3-enecarboxylic acid] as the molecule, how does the EC50 read?
Its EC50 is < 0.1 µM.

Which EC50 does the source give for `CC(C)C1=C2[C@H]3CC[C@@H]4[C@@]5(C)CC=C(C6=CC[C@](CF)(C(=O)O)CC6)C(C)(C)[C@@H]5CC[C@@]4(C)[C@]3(C)CC[C@@]2(NCCN2CCC(S(C)(=O)=O)CC2)CC1=O` [Example 11, (S)-1-(fluoromethyl)-4-((3aR,5aR,5bR,7aR,11aS,11bR,13aS)-1-isopropyl-5a,5b,8,8,11a-pentamethyl-3a-((2-(4-(methylsulfonyl)piperidin-1-yl)ethyl)amino)-2-oxo-3,3a,4,5,5a,5b,6,7,7a,8,11,11a,11b,12,13,13a-hexadecahydro-2H-cyclopenta[a]chrysen-9-yl)cyclohex-3-enecarboxylic acid] here?
The EC50 was < 0.1 µM.

`CC(C)C1=C2[C@H]3CC[C@@H]4[C@@]5(C)CC=C(C6=CC[C@](CF)(C(=O)O)CC6)C(C)(C)[C@@H]5CC[C@@]4(C)[C@]3(C)CC[C@@]2(NCC[N+]2(CCN3CCC(S(C)(=O)=O)CC3)CCC(S(C)(=O)=O)CC2)CC1=O` (stereo partly drawn) [Example 12, 1-(2-(((3aR,5aR,5bR,7aR,11aS,11bR,13aS)-9-((S)-4-carboxy-4-(fluoromethyl)cyclohex-1-en-1-yl)-1-isopropyl-5a,5b,8,8,11a-pentamethyl-2-oxo-3,3a,4,5,5a,5b,6,7,7a,8,11,11a,11b,12,13,13a-hexadecahydro-2H-cyclopenta[a]chrysen-3a-yl)amino)ethyl)-4-(methylsulfonyl)-1-(2-(4-(methylsulfonyl)piperidin-1-yl)ethyl)piperidin-1-ium] was tested. Which EC50 did it give?
Its EC50 is < 0.1 µM.

For `CC(C)C1=C2[C@H]3CC[C@@H]4[C@@]5(C)CC=C(C6=CC[C@](CF)(C(=O)O)CC6)C(C)(C)[C@@H]5CC[C@@]4(C)[C@]3(C)CC[C@@]2(CNCCCN2CCS(=O)(=O)CC2)CC1=O` [Example 13], which EC50 is on record?
The EC50 was < 0.1 µM.

How did the EC50 turn out when `CC(C)C1=C2[C@H]3CC[C@@H]4[C@@]5(C)CC=C(c6ccc(C(=O)O)cc6)C(C)(C)[C@@H]5CC[C@@]4(C)[C@]3(C)CC[C@@]2(C(O)CNCCN(C)C)CC1=O` (stereo partly drawn) [Example 14, 4-((3aR,5aR,5bR,7aR,11aS,11bR,13aS)-3a-(2-((2-(dimethylamino)ethyl)amino)-1-hydroxyethyl)-1-isopropyl-5a,5b,8,8,11a-pentamethyl-2-oxo-3,3a,4,5,5a,5b,6,7,7a,8,11,11a,11b,12,13,13a-hexadecahydro-2H-cyclopenta[a]chrysen-9-yl)benzoic acid] was run?
Its EC50 is 0.00536 µM.

With `CC(C)C1=C2[C@H]3CC[C@@H]4[C@@]5(C)CC=C(C6=CCC(C(=O)O)CC6)C(C)(C)[C@@H]5CC[C@@]4(C)[C@]3(C)CC[C@@]2(C(O)CN(CCN(C)C)Cc2ccc(Cl)cc2)CC1=O` (stereo partly drawn) [Example 15, 4-((3aR,5aR,5bR,7aR,11aS,11bR,13aS)-3a-(2-((4-chlorobenzyl)(2-(dimethylamino)ethyl)amino)-1-hydroxyethyl)-1-isopropyl-5a,5b,8,8,11a-pentamethyl-2-oxo-3,3a,4,5,5a,5b,6,7,7a,8,11,11a,11b,12,13,13a-hexadecahydro-2H-cyclopenta[a]chrysen-9-yl)cyclohex-3-enecarboxylic acid] as the molecule, how does the EC50 read?
Its EC50 is < 0.1 µM.
